Converted amounts (≈) assume the structure as drawn. Like-named read-outs stand apart in the source and are kept apart here.
Experiments:
S. haemolyticus = assay: In vitro activity (MIC) against S. haemolyticus strains; conditions: Staphylococcus haemolyticus
[1] = test system: Staphylococcus spp. strains; assay: In vitro activity (MIC) against Staphylococcus spp. strains; conditions: Staphylococcus
S. aureus = assay: In vitro activity (MIC) against S. aureus strains; conditions: Staphylococcus aureus
[2] = test system: Enterococcus spp. strains; assay: In vitro activity (MIC) against Enterococcus spp. strains

COC1/C=C/O[C@@]2(C)Oc3c(C)c(O)c4c(O)c(c5c(c4c3C2=O)NC2C=C(C)C=CN52)NC(=O)/C(C)=C\C=C\C(C)C(O)C(C)C(O)C(C)C(O)C1C (some centres unmarked) [25-desacetyl rifaximin]
MIC (S. haemolyticus; strain S. haemolyticus 243): 0.5 µg/mL (≈ 0.67 µM)
MIC (S. haemolyticus; strain S. haemolyticus 276): 1 µg/mL (≈ 1.34 µM)
MIC (S. haemolyticus; strain S. haemolyticus 955): 1 µg/mL (≈ 1.34 µM)
MIC (S. haemolyticus; strain S. haemolyticus 982): 0.5 µg/mL (≈ 0.67 µM)
MIC50 [1]: 2 µg/mL (≈ 2.68 µM)
MIC90 [1]: 16 µg/mL (≈ 21.5 µM)
MIC ([1]; read-out: Mode (MIC), Staphylococcus spp. strains): 2 µg/mL (≈ 2.68 µM)
MIC ([1]; strain S. spp. 1102): 1 µg/mL (≈ 1.34 µM)
MIC ([1]; strain S. spp. 1187): 2 µg/mL (≈ 2.68 µM)
MIC ([1]; strain S. spp. 1195): 0.12 µg/mL (≈ 0.161 µM)
MIC ([1]; strain S. spp. 1256): 4 µg/mL (≈ 5.36 µM)
MIC ([1]; strain S. spp. 1312): 4 µg/mL (≈ 5.36 µM)
MIC ([1]; strain S. spp. 1689): 4 µg/mL (≈ 5.36 µM)
MIC ([1]; strain S. spp. 1745): 0.25 µg/mL (≈ 0.335 µM)
MIC (S. aureus; strain ATCC S. aureus 29213): 0.5 µg/mL (≈ 0.67 µM)
MIC (S. aureus; strain S. aureus 215): 16 µg/mL (≈ 21.5 µM)
MIC (S. aureus; strain S. aureus 234): 2 µg/mL (≈ 2.68 µM)
MIC (S. aureus; strain S. aureus 236): 16 µg/mL (≈ 21.5 µM)
MIC (S. aureus; strain S. aureus 237): 2 µg/mL (≈ 2.68 µM)
MIC (S. aureus; strain S. aureus 238): 0.25 µg/mL (≈ 0.335 µM)
MIC (S. aureus; strain S. aureus 246): 2 µg/mL (≈ 2.68 µM)
MIC (S. aureus; strain S. aureus 252): 4 µg/mL (≈ 5.36 µM)
MIC (S. aureus; strain S. aureus 253): 1 µg/mL (≈ 1.34 µM)
MIC (S. aureus; strain S. aureus 267): 16 µg/mL (≈ 21.5 µM)
MIC (S. aureus; strain S. aureus 272): 2 µg/mL (≈ 2.68 µM)
MIC (S. aureus; strain S. aureus 279): 0.25 µg/mL (≈ 0.335 µM)
MIC (S. aureus; strain S. aureus 327): 4 µg/mL (≈ 5.36 µM)
MIC (S. aureus; strain S. aureus 328): 2 µg/mL (≈ 2.68 µM)
MIC (S. aureus; strain S. aureus 329): 4 µg/mL (≈ 5.36 µM)
MIC (S. aureus; strain S. aureus 339): 16 µg/mL (≈ 21.5 µM)
MIC (S. aureus; strain S. aureus 345): 2 µg/mL (≈ 2.68 µM)
MIC (S. aureus; strain S. aureus 355): 2 µg/mL (≈ 2.68 µM)
MIC (S. aureus; strain S. aureus 406): > 16 µg/mL
MIC (S. aureus; strain S. aureus 408): 2 µg/mL (≈ 2.68 µM)
MIC (S. aureus; strain S. aureus 409): 1 µg/mL (≈ 1.34 µM)
MIC (S. aureus; strain S. aureus 416): 2 µg/mL (≈ 2.68 µM)
MIC (S. aureus; strain S. aureus 425): > 16 µg/mL
MIC (S. aureus; strain S. aureus 436): 2 µg/mL (≈ 2.68 µM)
MIC (S. aureus; strain S. aureus 475): 4 µg/mL (≈ 5.36 µM)
MIC ([2]; ATCC E. faecalis 29212): 16 µg/mL (≈ 21.5 µM)
MIC ([2]; E. faecalis 181): > 16 µg/mL
MIC ([2]; E. faecalis 186): 4 µg/mL (≈ 5.36 µM)
MIC ([2]; E. faecalis 187): 4 µg/mL (≈ 5.36 µM)
MIC ([2]; E. faecalis 193): 4 µg/mL (≈ 5.36 µM)
MIC ([2]; E. faecalis 194): > 16 µg/mL
MIC ([2]; E. faecalis 200): > 16 µg/mL
MIC ([2]; E. faecalis 204): 4 µg/mL (≈ 5.36 µM)
MIC ([2]; E. faecalis 205): > 16 µg/mL
MIC ([2]; E. faecalis 210): 4 µg/mL (≈ 5.36 µM)
MIC ([2]; E. faecalis 227): > 16 µg/mL
MIC ([2]; E. faecalis 228): 4 µg/mL (≈ 5.36 µM)
MIC ([2]; E. faecalis 232): 4 µg/mL (≈ 5.36 µM)
MIC ([2]; E. faecalis 235): > 16 µg/mL
MIC ([2]; E. faecalis 237): 4 µg/mL (≈ 5.36 µM)
MIC ([2]; E. faecalis 239): > 16 µg/mL
MIC ([2]; E. faecalis 242): > 16 µg/mL
MIC ([2]; E. faecalis 243): > 16 µg/mL
MIC ([2]; E. faecalis 245): > 16 µg/mL
MIC ([2]; E. faecalis 249): 4 µg/mL (≈ 5.36 µM)
MIC ([2]; E. faecalis 250): > 16 µg/mL
MIC ([2]; E. faecalis 251): > 16 µg/mL
MIC ([2]; E. faecalis 255): 4 µg/mL (≈ 5.36 µM)
MIC ([2]; E. faecium 8): 4 µg/mL (≈ 5.36 µM)
MIC ([2]; E. faecium 13): 4 µg/mL (≈ 5.36 µM)
MIC ([2]; E. faecium 174): > 16 µg/mL
MIC ([2]; E. faecium 185): > 16 µg/mL
MIC ([2]; E. faecium 188): > 16 µg/mL
MIC ([2]; E. faecium 189): 8 µg/mL (≈ 10.7 µM)
MIC ([2]; E. faecium 190): > 16 µg/mL
MIC ([2]; E. faecium 191): > 16 µg/mL
MIC ([2]; E. faecium 192): 8 µg/mL (≈ 10.7 µM)
MIC ([2]; E. faecium 198): > 16 µg/mL
MIC ([2]; E. faecium 199): > 16 µg/mL
MIC ([2]; E. faecium 201): > 16 µg/mL
MIC ([2]; E. faecium 203): 8 µg/mL (≈ 10.7 µM)
MIC ([2]; E. faecium 207): > 16 µg/mL
MIC ([2]; E. faecium 208): 4 µg/mL (≈ 5.36 µM)
MIC ([2]; E. faecium 209): > 16 µg/mL
MIC ([2]; E. faecium 212): > 16 µg/mL
MIC ([2]; E. faecium 215): > 16 µg/mL
MIC ([2]; E. faecium 217): 4 µg/mL (≈ 5.36 µM)
MIC ([2]; E. faecium 221): > 16 µg/mL
MIC ([2]; E. faecium 222): > 16 µg/mL
MIC ([2]; E. faecium 223): > 16 µg/mL
MIC ([2]; E. faecium 225): > 16 µg/mL
MIC ([2]; E. faecium 229): 8 µg/mL (≈ 10.7 µM)
MIC ([2]; E. faecium 230): 4 µg/mL (≈ 5.36 µM)
MIC ([2]; E. faecium 231): > 16 µg/mL
MIC ([2]; E. faecium 236): 4 µg/mL (≈ 5.36 µM)
MIC ([2]; E. faecium 238): > 16 µg/mL
MIC ([2]; E. faecium 240): > 16 µg/mL
MIC ([2]; E. faecium 248): > 16 µg/mL
MIC50 ([2]; Enterococcus): > 16 µg/mL
MIC90 ([2]; Enterococcus): > 16 µg/mL
MIC ([2]; Enterococcus, read-out: Mode (MIC), Enterococcus spp. strains): > 16 µg/mL

Source: patent publication US9364467B2 (Salix Pharmaceuticals, Ltd, priority 2012, dated 2016)
